Data from patent US8741836B2, “Polypeptides” (Novo Nordisk A/S, priority 2011, dated 2014).
pEC50: −log10 of the molar value. Where two headings read alike, the source gives them in different places. Starred links: 1 amine or outer side, 2 acyl side, 3 side chain; linkers in the order of their positions; H or OH if unused. Positions of bridges follow the written chain, without caps; N, C: chain ends. Residues, ends and D or L forms follow the SMILES beside them. Groups on a side chain read outwards from the residue. *: point of attachment. C18 diacid = O=C(O)CCCCCCCCCCCCCCCCC(=O)*; γGlu = O=C(O)[C@H](CCC(=O)[*:2])N[*:1]; AEEA = NCCOCCOCC(=O)O

Columns and labels:
Type in all cases: cell-based
[1] = target: T1, rat calcitonin (a) receptor (Rattus norvegicus, UniProt P32214); assay: Assay (II)b functional assay, rat calcitonin receptor (cAMP FlashPlate); conditions: Table 11, read-out: CTa receptor rat EC50
T1 construct: expressed in transfected cells; host or cells: BHK tk'ts 13 (transient, FuGENE 6)
T1 sequence (P32214 25-479 isoform P32214-2 limits assumed): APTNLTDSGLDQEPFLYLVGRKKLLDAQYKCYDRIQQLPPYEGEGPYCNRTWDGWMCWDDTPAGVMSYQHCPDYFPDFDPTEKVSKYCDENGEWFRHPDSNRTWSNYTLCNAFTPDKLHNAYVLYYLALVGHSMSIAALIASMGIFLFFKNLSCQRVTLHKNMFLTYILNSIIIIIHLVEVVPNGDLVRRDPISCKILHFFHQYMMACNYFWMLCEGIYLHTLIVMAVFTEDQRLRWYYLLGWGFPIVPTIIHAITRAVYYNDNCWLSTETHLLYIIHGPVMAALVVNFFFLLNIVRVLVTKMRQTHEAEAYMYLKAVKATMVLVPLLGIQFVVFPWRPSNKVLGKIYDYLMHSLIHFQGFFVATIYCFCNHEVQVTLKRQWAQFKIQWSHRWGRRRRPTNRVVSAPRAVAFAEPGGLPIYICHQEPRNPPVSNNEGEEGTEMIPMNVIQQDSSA
Source text: (§1) Assay (II)b—Rat Calcitonin and Rat Amylin Receptor Assays
(§2) Activation of calcitonin and amylin (coexpression of calcitonin receptor and receptor activity modifying proteins (RAMP)) receptors lead to increased intracellular concentrations of cAMP. In order to quantify the cAMP levels in transiently transfected cells the Adenylyl Cyclase Activation FlashPlate® Assay from Perkin Elmer was used. The basic principle of the FlashPlate® Assay is a competition between radioactive and non-radioactive cAMP generated by the cells for a fixed number of binding sites.
(§3) Construction of Rat Calcitonin(a)- and Rat Amylin 3(a)-Receptor Cells.
(§4) BHK tk'ts 13 cells were transiently transfected with either rat calcitonin (a) receptor or amylin 3 (a) receptor (rat calcitonin(a) receptor+rat RAMP3) using FuGENE® 6 (Roche), according to the manufacturers recommendations.
(§5) 24 hours after transient transfection the cells (rat calcitonin(a)- or rat amylin 3(a)-receptor cells) were added (100.000 cells/well) to the 96 well FlashPlates® with samples or standard in FlashPlate stimulation buffer with IBMX and incubated for 30 min. Detection mix was created according to manufacturers protocol and scintillation measured after 3 h of incubation on TopCounter™ (Packard).

[2] = target: T2, rat amylin 3(a) receptor (rat calcitonin(a) receptor+rat RAMP3) (Rattus norvegicus, UniProt P32214+Q9JJ73); assay: Assay (II)b functional assay, rat amylin receptor (cAMP FlashPlate); conditions: Table 11
T2 construct: expressed in transfected cells; host or cells: BHK tk'ts 13 (transient, FuGENE 6)
T2 sequence (P32214 25-479 isoform P32214-2 limits assumed): T1 sequence (P32214 25-479 isoform P32214-2 limits assumed)
T2 sequence (Q9JJ73 24-147 partner limits assumed): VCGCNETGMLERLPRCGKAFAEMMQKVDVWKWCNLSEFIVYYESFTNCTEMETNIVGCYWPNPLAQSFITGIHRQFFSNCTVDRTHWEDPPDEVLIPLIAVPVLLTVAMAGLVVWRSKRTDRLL
Source text: as §1, §2, §3, §4, §5

[3] = target: T3, human amylin 3(a) receptor (human calcitonin receptor + RAMP-3) (Homo sapiens, UniProt O60896+P30988); assay: Assay (II)a functional assay, human amylin receptor (CRE luciferase reporter in BHK cells)
T3 construct: expressed in transfected cells; CRE-luciferase reporter
T3 sequence (P30988 25-474): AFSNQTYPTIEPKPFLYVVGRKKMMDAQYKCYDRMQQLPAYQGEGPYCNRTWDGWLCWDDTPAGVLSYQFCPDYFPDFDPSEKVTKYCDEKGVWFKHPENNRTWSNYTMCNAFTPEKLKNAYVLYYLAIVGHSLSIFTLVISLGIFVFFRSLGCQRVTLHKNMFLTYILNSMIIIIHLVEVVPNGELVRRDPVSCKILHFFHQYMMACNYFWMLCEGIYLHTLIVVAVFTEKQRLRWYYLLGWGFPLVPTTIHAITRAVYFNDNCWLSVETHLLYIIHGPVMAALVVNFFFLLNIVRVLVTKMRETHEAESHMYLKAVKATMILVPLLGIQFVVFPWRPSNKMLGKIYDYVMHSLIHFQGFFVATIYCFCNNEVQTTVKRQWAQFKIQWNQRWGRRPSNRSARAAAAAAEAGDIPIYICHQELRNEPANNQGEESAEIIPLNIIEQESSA
T3 sequence (O60896 24-148 partner): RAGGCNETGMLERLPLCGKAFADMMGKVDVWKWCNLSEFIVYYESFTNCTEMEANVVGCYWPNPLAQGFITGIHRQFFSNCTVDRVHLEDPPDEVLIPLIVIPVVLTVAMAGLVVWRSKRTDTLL
Source text: 1. Luciferase Assay Outline
Activation of calcitonin and amylin (coexpression of calcitonin receptor and receptor activity modifying proteins (RAMP)) receptors lead to increased intracellular concentrations of cAMP. Consequently, transcription is activated by promoters containing multiple copies of the cAMP response element (CRE). It is thus possible to measure amylin activity by the use of a CRE luciferase reporter gene introduced into BHK cells also expressing calcitonin or amylin receptors.
A BHK570 cell line was stably transfected with the human calcitonin receptor and a CRE-responsive luciferase reporter gene. The cell line was further transfected with RAMP-3, using standard methods. This turns the calcitonin receptor into an amylin 3(a) receptor. Methotrexate, Neomycin, and Hygromycin are selection markers for luciferase, the calcitonin receptor, and RAMP-3, respectively.
To perform activity assays, BHK calcitonin (a) receptor- or amylin 3(a)-receptor/CRE-luc cells were seeded in white 96 well culture plates at a density of about 20.000 cells/well. […] After incubation overnight at 37° C. and 5% CO2, the growth medium was replaced by 50 μl/well assay medium (DMEM (without phenol red), Glutamax™, 10% FBS, and 10 mM Hepes, pH 7.4). Further, 50 μl/well of standard or sample in assay buffer were added. After 3 hours incubation at 37° C. and 5% CO2, the assay medium with standard or sample were removed and replaced by 100 μl/well PBS. Further, 100 μl/well LucLite™ was added. The plates were sealed and incubated at room temperature for 30 minutes. Finally, luminescence was measured on a TopCounter (Packard) in SPC (single photon counting) mode.

pEC50 [1]: 8.69
pEC50 [2]: 9.30
pEC50 [3]: 9.74
pEC50 ([3]; Table 4): 9.74
pEC50 ([3]; Table 5): 9.74
pEC50 ([3]; Table 6, human amylin receptor): 9.74
pEC50 ([3]; Table 7, human amylin receptor): 9.74
pEC50 ([3]; Table 8, human amylin receptor): 9.74
pEC50 ([3]; Table 11, human amylin receptor): 9.74
SMILES: CC[C@H](C)[C@H](NC(=O)[C@@H]1CCCN1C(=O)CNC(=O)[C@H](Cc1ccccc1)NC(=O)[C@H](CC(N)=O)NC(=O)[C@H](CCCCNC(=O)COCCOCCNC(=O)COCCOCCNC(=O)CC[C@H](NC(=O)CCCCCCCCCCCCCCCCC(=O)O)C(=O)O)NC(=O)[C@H](CO)NC(=O)[C@H](CO)NC(=O)[C@H](Cc1c[nH]cn1)NC(=O)[C@H](Cc1c[nH]cn1)NC(=O)[C@H](CC(C)C)NC(=O)[C@H](Cc1ccccc1)NC(=O)[C@H](CCC(=O)O)NC(=O)[C@H](C)NC(=O)[C@H](CC(C)C)NC(=O)[C@H](CCCNC(=N)N)NC(=O)[C@H](CCC(N)=O)NC(=O)[C@@H](NC(=O)[C@H](C)NC(=O)[C@@H]1CSSC[C@H](NC(=O)[C@@H](N)CCCCN)C(=O)N[C@@H](CC(N)=O)C(=O)N[C@@H]([C@@H](C)O)C(=O)N[C@@H](C)C(=O)N[C@@H]([C@@H](C)O)C(=O)N1)[C@@H](C)O)C(=O)N[C@@H](CC(C)C)C(=O)N1CCC[C@H]1C(=O)N1CCC[C@H]1C(=O)N[C@H](C(=O)N[C@@H](CC(N)=O)C(=O)N[C@H](C(=O)NCC(=O)N[C@@H](CO)C(=O)N[C@@H](CCC(=O)O)C(=O)N[C@H](C(=O)N[C@@H](Cc1ccc(O)cc1)C(N)=O)[C@@H](C)O)C(C)C)[C@@H](C)O [Example 74, N-epsilon21-[2-(2-{2-[2-(2-{2-[(S)-4-Carboxy-4-(17-carboxyheptadecanoylamino)butyrylamino]ethoxy}ethoxy)acetylamino]ethoxy}ethoxy)acetyl]-[Glu14,His17,Lys21,Glu35]-pramlintide] (H-KCNTATCATQRLAEFLHHSSK([AEEA-AEEA-γGlu-C18 diacid])NFGPILPPTNVGSETY-NH2; disulfide 2-7 (inferred); N-terminus and C-terminus assumed)
